In one data set the test system is AMPA receptor. Description: Electrophysiological whole cell patch clamp experiments: potentiation of AMPA-induced current. Type of data set: cell-based, mouse. Conditions: for concentration dependence of the potentiating effect: Compound 23a at 10, 30 and 100 μM, Compound 27a at 0.1-100 μM, 30 μM AMPA; for effect on the current induced by application of 30 μM AMPA: cultured mouse neocortical neurons, voltage clamp -60 mV, AMPA 30 μM for 1 second every 45 seconds, test concentrations per FIGS. 2-8 (Cpd 21 15 μM; 22, 24, 25 10 μM; 23a 10-100 μM; 26 3 μM; 27a 0.1-100 μM). The protocol: Electrophysiological Patch Clamp Experiments
Experiments were performed in voltage clamp using conventional whole cell patch clamp methods (see Hamill O P, Marty A, Neher E, Sakmann B & Sigworth F J: Improved patch-clamp techniques for high-resolution current recording from cells and cell-free membrane patches; Pflügers Arch. 1981 39 85–100), essentially as described Mathiesen et al. (Mathiesen C, Varming T & Jensen L H: In vivo and in vitro evaluation of AMPA receptor antagonists in rat hippocampal neurones and cultured mouse cortical neurons; Eur. J. Pharmacol. 1998 353 159–167).
The following salt solutions were used (mM): NaCl (140), KCl (4), CaCl2 (2), MgCl2 (1), Sucrose (30; Available from Fluka Chemie, Buchs, Switzerland), Tetrodotoxin (0.0003; Available from Alomone Labs, Jerusalem, Israel), Bicuculline Methiodide (0.005; Available from RBI, MA, USA) and HEPES (10, pH 7.4).
Intracellular solution (mM): CsCl (120), CsF (20), MgCl2 (2), EGTA (10), ATP (4), HEPES (10, pH=7.2).
Cell cultures: Mouse neocortical neurons were cultured essentially as described by Drejer et al. (Drejer J, Honoré T & Schousboe A: Excitatory amino acid-induced release of ^3H-GABA from cultured mouse cerebral cortex interneurons; J. Neurosci. 1987 7 2910–2916).
Briefly, the forebrains from embryonic (E17) NMRI mice were removed under sterile conditions. Pregnant (9 days) NMRI mice were obtained from Bomholtgaard Breeding and Research Center, Ry, Denmark. The tissue was chopped in 0.4 mm cubes and the triturated with trypsin (12.5 μg/ml) and DNAse (2.5 μg/ml), 15 minutes, 37° C. The cells were suspended at a concentration of 1×10^6 cells/ml in a slightly modified DMEM containing horse serum (10% (v/v)), penicillin (333 U/ml), paraaminobenzoic acid (1 μg/ml), L-glutamine (0.5 mM), insulin (0.08 U/ml) and KCl (23.8 mM). Horse serum, N2 supplement and culture media were purchased from Life Technologies (GIBCO), Roskilde, Denmark.
The cell suspension was subsequently inoculated into poly-L-lysine coated 35 mm Petri dishes (2 ml/dish). Glass coverslips (3.5 mm) were placed in the dishes before coating. After 24 hours in culture, the medium was replaced by freshly made medium containing 1% N2 supplement instead of serum.
The cells were kept in culture for 7–14 days at 37° C. (5% CO2/95% O2) before experiments were carried out.
Electronics, programs and data acquisition: The amplifier used was the EPC-9 (HEKA-electronics, Lambrect, Germany) run by a Power Macintosh G3 computer via an ITC-16 interface. Experimental conditions were set with the Pulse-software accompanying the amplifier. Data were low pass filtered and sampled directly to hard-disk at a rate of 3 times the cut-off frequency.
Pipettes and electrodes: Pipettes were pulled from borosilicate glass (Modulohm, Copenhagen, Denmark) using a horizontal electrode puller (Zeitz-Instrumente, Augsburg, Germany). The pipette resistances were 1.7–2.4 MΩ in the salt solutions used in these experiments. The pipette electrode was a chloridized silver wire, and the reference was a silverchloride pellet electrode (In Vivo Metric, Healdsburg, USA) fixed to the experimental chamber. The electrodes were zeroed with the open pipette in the bath just prior to sealing.
Experimental procedure: Coverslips were transferred to a 15 μl experimental chamber mounted on the stage of an inverted microscope (IMT-2, Olympus) supplied with Nomarski optics. The neurons were continuously superfused with extracellular saline at a rate of 2.5 ml/min. After giga-seal formation (1–5 GΩ, success-rate≈90%) the whole cell configuration was attained by suction.
The cells were held at a holding voltage of −60 mV, and at the start of each experiment the current was continuously measured for at least 30 seconds to ensure a stable leak current.
AMPA-containing solutions were delivered to the chamber through a custom-made gravity-driven flowpipe, the tip of which was placed approximately 50 μm from the cell. […]

SMILES strings stand for the structures.

Take `Cc1cc2c(cc1S(=O)(=O)N1CCN(C)CC1)S(=O)(=O)NC(C1CCCC1)C2.Cl` (racemic): the melting point was 251 °C (dec.).

On to `CN1CCN(S(=O)(=O)c2ccc3c(c2)S(=O)(=O)NC(C2CCCC2)C3)CC1` (racemic) [Compound 23a, (3RS)-3-Cyclopentyl-7-(4-methyl-piperazine-1-sulfonyl)-3,4-dihydro-2H-benzo[e][1,2]thiazine-1,1-dioxide], for which, in the data set with AMPA receptor, the “concentration dependence of the potentiating effect” value is reported as “concentration-dependent” and the “effect on the current induced by application of 30 μM AMPA” value (from here on “effect on the current induced”) is “potentiate the current induced by application of 30 μM AMPA”.

As to `O=S1(=O)NC(C2CCCCC2)Cc2ccc(S(=O)(=O)N3CCCCC3)cc21` (racemic) [Compound 21, (3RS)-3-Cyclohexyl-7-(piperidine-1-sulfonyl)-3,4-dihydro-2H-benzo[e][1,2]thiazine-1,1-dioxide], the “effect on the current induced” value in the data set on AMPA receptor is reported as “potentiate the current induced by application of 30 μM AMPA”.

Regarding `O=S1(=O)NC(C2CCCC2)Cc2ccc(S(=O)(=O)N3CCCCC3)cc21` (racemic) [Compound 22, (3RS)-3-Cyclopentyl-7-(piperidine-1-sulfonyl)-3,4-dihydro-2H-benzo[e][1,2]thiazine-1,1-dioxide], the “effect on the current induced” value with AMPA receptor is listed as “potentiate the current induced by application of 30 μM AMPA”.

Regarding `CN1CCN(S(=O)(=O)c2ccc3c(c2)S(=O)(=O)NC(C2CCCCC2)C3)CC1` (racemic) [Compound 24, (3RS)-3-Cyclohexyl-7-(4-methyl-piperazine-1-sulfonyl)-3,4-dihydro-2H-benzo[e][1,2]thiazine-1,1-dioxide], the “effect on the current induced” value in the data set with AMPA receptor was “potentiate the current induced by application of 30 μM AMPA”.

In turn, `CN1CCN(S(=O)(=O)c2ccc3c(c2)S(=O)(=O)NC(C2CCCC2)C3)CC1.Cl` (racemic) showed a melting point of 234 to 236 °C.

Take `Cc1cc2c(cc1S(=O)(=O)N1CCCCC1)S(=O)(=O)NC(C1CCCC1)C2` (racemic) [Compound 25, (3RS)-3-Cyclopentyl-6-methyl-7-(piperidine-1-sulfonyl)-3,4-dihydro-2H-benzo[e][1,2]thiazine-1,1-dioxide]: the “effect on the current induced” value with AMPA receptor is given as “potentiate the current induced by application of 30 μM AMPA”.

Regarding `Cc1cc2c(cc1S(=O)(=O)N1CCOCC1)S(=O)(=O)NC(C1CCCC1)C2` (racemic) [Compound 26, (3RS)-3-Cyclopentyl-6-methyl-7-(morpholine-4-sulfonyl)-3,4-dihydro-2H-benzo[e][1,2]thiazine-1,1-dioxide], the “effect on the current induced” value with AMPA receptor is given as “potentiate the current induced by application of 30 μM AMPA”.

Take `Cc1cc2c(cc1S(=O)(=O)N1CCN(C)CC1)S(=O)(=O)NC(C1CCCC1)C2` (racemic) [Compound 27a, (3RS)-3-Cyclopentyl-6-methyl-7-(4-methyl-piperazine-1-sulfonyl)-3,4-dihydro-2H-benzo[e][1,2]thiazine-1,1-dioxide]: in the data set with AMPA receptor, the “concentration dependence of the potentiating effect” value was “concentration-dependent” and the “effect on the current induced” value is on record as “potentiate the current induced by application of 30 μM AMPA”.

Source of the values: patent US7199118B2, “Benzothiazine derivatives, their preparation and use” (NeuroSearch A/S, priority 2001, dated 2007).
